Measurements: ChEMBL document CHEMBL2331515, “Design, synthesis, and pharmacological characterization of novel endomorphin-1 analogues as extremely potent μ-opioid agonists” (J Med Chem, 2013)
The source made the active and inactive calls. The calls are words filed in the database; no cut-off is given here.

Tests used:
[1] = biological target: T1, Delta-type opioid receptor (Homo sapiens, UniProt P41143); assay: Agonist activity at Myc-tagged delta-type opioid receptor (unknown origin) expressed in HEK293 cells assessed as inhibition of forskolin-stimulated cAMP accumulation after 30 mins by liquid scintillation counting analysis relative to DAMGO; type: functional, cell-based
[2] = biological target: T1, Delta-type opioid receptor; assay: Displacement of [3H]DPDPE from Myc-tagged delta-type opioid receptor (unknown origin) expressed in HEK293 cells after 60 mins by liquid scintillation counting analysis; type: cell-based
[3] = biological target: Mu-type opioid receptor (Cavia porcellus, UniProt P97266); assay: Agonist activity at mu-type opioid receptor in guinea pig ileum assessed as inhibition of electrically evoked muscle contraction; type: tissue-based
[4] = biological target: Mu-type opioid receptor (Mus musculus) (UniProt P42866); assay: Agonist activity at mu-type opioid receptor in Kunming mouse vas deferens assessed as inhibition of electrically evoked muscle contraction in presence of naltrindole
[5] = biological target: T2, Mu-type opioid receptor (Homo sapiens, UniProt P35372); assay: Agonist activity at FLAG-tagged mu-type opioid receptor (unknown origin) expressed in HEK293 cells assessed as inhibition of forskolin-stimulated cAMP accumulation after 30 mins by liquid scintillation counting analysis relative to DAMGO; type: functional, cell-based
[6] = biological target: T1, Delta-type opioid receptor; assay: Agonist activity at Myc-tagged delta-type opioid receptor (unknown origin) expressed in HEK293 cells assessed as inhibition of forskolin-stimulated cAMP accumulation after 30 mins by liquid scintillation counting analysis; type: functional, cell-based
[7] = species: Homo sapiens; assay: Selectivity ratio of Ki for Myc-tagged delta-type opioid receptor (unknown origin) to Ki for FLAG-tagged mu-type opioid receptor (unknown origin)
[8] = biological target: T2, Mu-type opioid receptor; assay: Displacement of [3H]DAMGO from FLAG-tagged mu-type opioid receptor (unknown origin) expressed in HEK293 cells after 60 mins by liquid scintillation counting analysis; type: cell-based
[9] = biological target: Mu-type opioid receptor (Mus musculus, UniProt P42866); assay: Agonist activity at mu-type opioid receptor in Kunming mouse vas deferens assessed as inhibition of electrically evoked muscle contraction
[10] = biological target: T2, Mu-type opioid receptor; assay: Agonist activity at FLAG-tagged mu-type opioid receptor (unknown origin) expressed in HEK293 cells assessed as inhibition of forskolin-stimulated cAMP accumulation after 30 mins by liquid scintillation counting analysis; type: functional, cell-based
[11] = biological target: Kappa-type opioid receptor (Homo sapiens, UniProt P41145); assay: Displacement of [3H]U69,593 from kappa-type opioid receptor (unknown origin) expressed in HEK293 cells after 60 mins by liquid scintillation counting analysis; type: cell-based
[12] = Selectivity ratio of Ki for kappa-type opioid receptor (unknown origin) to Ki for FLAG-tagged mu-type opioid receptor (unknown origin); settings: Homo sapiens
[13] = system: Mus musculus; assay: Antinociceptive activity in Kunming mouse assessed as tail withdrawal latency at 2 mg/kg, iv by hot water tail-flick test in presence of naloxone methiodide; type: functional, organism-based; design: dose 2 mg/kg
[14] = system: Mus musculus; assay: Antinociceptive activity in Kunming mouse assessed as tail withdrawal latency at 2 mg/kg, iv by hot water tail-flick test in presence of naloxone; type: functional, organism-based; design: dose 2 mg/kg
[15] = Half life in mouse brain homogenate by RP-HPLC analysis; type: ADME, tissue-based
[16] = system: Mus musculus; assay: Antinociceptive activity in icv dosed Kunming mouse assessed as tail withdrawal latency by hot water tail-flick test in presence of naloxone; type: functional, organism-based
[17] = system: Mus musculus; assay: Antinociceptive activity in icv dosed Kunming mouse assessed as tail withdrawal latency by hot water tail-flick test; type: functional; settings: for ED50: central
[18] = biological target: T2, Mu-type opioid receptor; assay: Agonist activity at FLAG-tagged mu-type opioid receptor (unknown origin) expressed in HEK293 cells assessed as stimulation of ERK1/2 phosphorylation at 1 uM after 2 mins by Western blotting analysis; type: cell-based
[19] = system: Mus musculus; assay: Antinociceptive activity in Kunming mouse assessed as tail withdrawal latency at 0.67 to 20 nmol/kg, icv by hot water tail-flick test; type: functional, organism-based; settings: TDE = time-dependent effect
[20] = system: Mus musculus; assay: Antinociceptive activity in Kunming mouse assessed as tail withdrawal latency at 2 mg/kg, iv after 15 to 20 mins by hot water tail-flick test relative to control; type: functional, organism-based; design: dose 2 mg/kg
[21] = biological target: T2, Mu-type opioid receptor; assay: Agonist activity at FLAG-tagged mu-type opioid receptor (unknown origin) expressed in HEK293 cells assessed as stimulation of ERK1/2 phosphorylation at 1 uM after 10 mins by Western blotting analysis; type: cell-based; settings: TDE = time-dependent effect

T1 sequence (P41143 whole entry): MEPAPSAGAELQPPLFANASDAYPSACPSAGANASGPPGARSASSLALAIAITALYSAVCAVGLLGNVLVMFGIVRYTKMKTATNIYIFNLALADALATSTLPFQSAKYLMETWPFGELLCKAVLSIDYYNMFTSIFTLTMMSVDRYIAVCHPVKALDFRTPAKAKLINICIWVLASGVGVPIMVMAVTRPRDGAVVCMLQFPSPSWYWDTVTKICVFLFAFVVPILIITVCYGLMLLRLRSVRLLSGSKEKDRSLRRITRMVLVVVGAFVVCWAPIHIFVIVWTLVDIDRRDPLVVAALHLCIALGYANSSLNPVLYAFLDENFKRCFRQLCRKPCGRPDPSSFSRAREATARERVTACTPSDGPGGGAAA
Kappa-type opioid receptor, sequence (P41145 whole entry): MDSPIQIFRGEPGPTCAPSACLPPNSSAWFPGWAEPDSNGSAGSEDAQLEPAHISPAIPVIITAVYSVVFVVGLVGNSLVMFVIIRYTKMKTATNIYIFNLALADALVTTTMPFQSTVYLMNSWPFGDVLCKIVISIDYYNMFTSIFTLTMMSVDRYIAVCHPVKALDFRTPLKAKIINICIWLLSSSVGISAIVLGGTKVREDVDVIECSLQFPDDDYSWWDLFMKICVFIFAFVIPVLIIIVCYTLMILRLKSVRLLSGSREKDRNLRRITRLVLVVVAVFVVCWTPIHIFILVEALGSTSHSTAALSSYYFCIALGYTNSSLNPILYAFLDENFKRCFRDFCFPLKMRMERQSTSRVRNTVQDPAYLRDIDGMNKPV
T2 sequence (P35372 whole entry): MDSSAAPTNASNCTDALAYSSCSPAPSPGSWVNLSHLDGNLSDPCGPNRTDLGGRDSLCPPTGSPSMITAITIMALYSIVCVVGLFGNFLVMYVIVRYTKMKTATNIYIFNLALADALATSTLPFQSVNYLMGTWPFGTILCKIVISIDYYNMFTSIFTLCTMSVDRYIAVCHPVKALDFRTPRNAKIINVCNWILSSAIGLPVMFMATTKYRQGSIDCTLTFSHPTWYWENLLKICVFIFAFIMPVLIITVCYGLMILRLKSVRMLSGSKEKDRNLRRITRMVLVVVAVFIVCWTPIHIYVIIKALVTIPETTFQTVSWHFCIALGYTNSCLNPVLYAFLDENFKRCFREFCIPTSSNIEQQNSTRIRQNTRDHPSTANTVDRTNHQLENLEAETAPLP
Mu-type opioid receptor (Cavia porcellus, UniProt P97266), sequence (P97266 whole entry): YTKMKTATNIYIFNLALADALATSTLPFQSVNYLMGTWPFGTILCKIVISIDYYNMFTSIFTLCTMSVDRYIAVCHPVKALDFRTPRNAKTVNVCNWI
Mu-type opioid receptor (Mus musculus), sequence (P42866 whole entry): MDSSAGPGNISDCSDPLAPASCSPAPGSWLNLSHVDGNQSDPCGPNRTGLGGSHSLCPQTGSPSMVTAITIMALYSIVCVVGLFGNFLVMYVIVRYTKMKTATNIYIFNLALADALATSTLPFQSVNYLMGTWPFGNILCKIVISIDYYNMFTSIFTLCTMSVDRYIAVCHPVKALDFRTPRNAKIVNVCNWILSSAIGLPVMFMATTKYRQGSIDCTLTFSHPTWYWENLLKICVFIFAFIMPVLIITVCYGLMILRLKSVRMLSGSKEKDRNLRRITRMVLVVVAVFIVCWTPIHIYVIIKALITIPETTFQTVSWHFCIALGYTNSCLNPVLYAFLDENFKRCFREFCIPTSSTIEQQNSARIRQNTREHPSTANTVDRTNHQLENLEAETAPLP
Mu-type opioid receptor (Mus musculus, UniProt P42866), sequence (P42866 whole entry): as above

C=C(C(=O)O)[C@@H](NC(=O)[C@H](Cc1c[nH]c2ccccc12)NC(=O)[C@@H]1CCCN1C(=O)[C@@H](N)Cc1c(C)cc(O)cc1C)c1ccccc1
Emax [1]: 77.5% | Ki [2]: 25.6 nM | IC50 [3]: 0.467 nM | inhibition [4]: Active | Emax [5]: 97.2% | Activity [6]: Dose-dependent effect | EC50 [6]: 51.6 nM | Ratio Ki [7]: 795 | Ki [8]: 0.0322 nM | IC50 [9]: 0.556 nM | EC50 [10]: 0.13 pM | inhibition [10]: Dose-dependent effect | Ki [11]: 192 nM | Ratio Ki [12]: 5960

C=C(C(N)=O)[C@@H](NC(=O)[C@H](Cc1c[nH]c2ccccc12)NC(=O)[C@H]1CCN(C(=O)[C@@H](N)Cc2c(C)cc(O)cc2C)C1)c1ccccc1
Activity [13]: Active | Emax [1]: 77.6% | Ki [2]: 18.9 nM | IC50 [3]: 0.539 nM | Activity [14]: inactive | half-life [15]: > 600 min | inhibition [4]: Active | Activity [16]: inactive | Emax [5]: 97.1% | Activity [6]: Dose-dependent effect | EC50 [6]: 40.4 nM | Activity [17]: Dose-dependent effect | ED50 [17]: 0.000779 µmol/kg | Ratio Ki [7]: 1380 | Activity [18]: Active | Activity [19]: tde | Ki [8]: 0.0137 nM | Activity [20]: Active | IC50 [9]: 1.53 nM | EC50 [10]: 0.107 pM | inhibition [10]: Dose-dependent effect | Ki [11]: 240 nM | Ratio Ki [12]: 17500 | Activity [21]: tde

C=C(C(N)=O)[C@@H](NC(=O)[C@H](Cc1c[nH]c2ccccc12)NC(=O)[C@H]1CCN(C(=O)[C@@H](N)Cc2ccc(O)cc2)C1)c1ccco1
Ki [2]: 6950 nM | IC50 [3]: 8.12 nM | inhibition [4]: Active | Emax [5]: 94.9% | Activity [6]: Dose-dependent effect | Ratio Ki [7]: 9170 | Ki [8]: 0.758 nM | IC50 [9]: 4.9 nM | EC50 [10]: 93.3 pM | inhibition [10]: Dose-dependent effect

C=C(C(N)=O)[C@@H](NC(=O)[C@H](Cc1c[nH]c2ccccc12)NC(=O)[C@@H]1CCN(C(=O)[C@@H](N)Cc2ccc(O)cc2)C1)c1ccco1
Ki [2]: 2780 nM | IC50 [3]: 1.67 nM | inhibition [4]: Active | Emax [5]: 96.2% | Activity [6]: Dose-dependent effect | Ratio Ki [7]: 16800 | Ki [8]: 0.165 nM | IC50 [9]: 2.91 nM | EC50 [10]: 8.53 pM | inhibition [10]: Dose-dependent effect

C=C(C(N)=O)[C@@H](NC(=O)[C@H](Cc1c[nH]c2ccccc12)NC(=O)[C@H]1CCN(C(=O)[C@@H](N)Cc2ccc(O)cc2)C1)c1ccccc1
Ki [2]: 5580 nM | IC50 [3]: 3.21 nM | inhibition [4]: Active | Emax [5]: 95.5% | Activity [6]: Dose-dependent effect | Ratio Ki [7]: 9720 | Ki [8]: 0.574 nM | IC50 [9]: 4.89 nM | EC50 [10]: 57 pM | inhibition [10]: Dose-dependent effect

C=C(C(N)=O)[C@@H](NC(=O)[C@H](Cc1c[nH]c2ccccc12)NC(=O)[C@@H]1CCN(C(=O)[C@@H](N)Cc2ccc(O)cc2)C1)c1ccccc1
Ki [2]: 2810 nM | IC50 [3]: 1.82 nM | inhibition [4]: Active | Emax [5]: 96.8% | Activity [6]: Dose-dependent effect | Ratio Ki [7]: 9490 | Ki [8]: 0.296 nM | IC50 [9]: 2.28 nM | EC50 [10]: 39.7 pM | inhibition [10]: Dose-dependent effect

C=C(C(N)=O)[C@@H](NC(=O)[C@H](Cc1c[nH]c2ccccc12)NC(=O)[C@H]1CCN(C(=O)[C@@H](N)Cc2c(C)cc(O)cc2C)C1)c1ccco1
Activity [13]: Active | Emax [1]: 72.2% | Ki [2]: 30.4 nM | IC50 [3]: 0.834 nM | Activity [14]: inactive | half-life [15]: > 600 min | inhibition [4]: Active | Activity [16]: inactive | Emax [5]: 98.6% | Activity [6]: Dose-dependent effect | EC50 [6]: 47.3 nM | Activity [17]: Dose-dependent effect | ED50 [17]: 0.00095 µmol/kg | Ratio Ki [7]: 2380 | Activity [18]: Active | Activity [19]: tde | Ki [8]: 0.0128 nM | Activity [20]: Active | IC50 [9]: 0.962 nM | EC50 [10]: 0.109 pM | inhibition [10]: Dose-dependent effect | Ki [11]: 180 nM | Ratio Ki [12]: 14100 | Activity [21]: tde

C=C(C(=O)O)[C@@H](NC(=O)[C@H](Cc1c[nH]c2ccccc12)NC(=O)[C@@H]1CCCN1C(=O)[C@@H](N)Cc1c(C)cc(O)cc1C)c1ccco1
Emax [1]: 76.3% | Ki [2]: 22.2 nM | IC50 [3]: 0.767 nM | inhibition [4]: Active | Emax [5]: 96.5% | Activity [6]: Dose-dependent effect | EC50 [6]: 48.9 nM | Ratio Ki [7]: 548 | Ki [8]: 0.0405 nM | IC50 [9]: 0.533 nM | EC50 [10]: 0.516 pM | inhibition [10]: Dose-dependent effect | Ki [11]: 200 nM | Ratio Ki [12]: 4940

C=C(C(N)=O)[C@@H](NC(=O)[C@H](Cc1c[nH]c2ccccc12)NC(=O)[C@@H]1CCN(C(=O)[C@@H](N)Cc2c(C)cc(O)cc2C)C1)c1ccccc1
Activity [13]: Active | Emax [1]: 72.1% | Ki [2]: 27.3 nM | IC50 [3]: 0.226 nM | Activity [14]: inactive | half-life [15]: > 600 min | inhibition [4]: Active | Activity [16]: inactive | Emax [5]: 98.9% | Activity [6]: Dose-dependent effect | EC50 [6]: 47.9 nM | Activity [17]: Dose-dependent effect | ED50 [17]: 0.000822 µmol/kg | Ratio Ki [7]: 2770 | Activity [18]: Active | Activity [19]: tde | Ki [8]: 0.00986 nM | Activity [20]: Active | IC50 [9]: 0.406 nM | inhibition [10]: Dose-dependent effect | Ki [11]: 174 nM | Ratio Ki [12]: 17600 | Activity [21]: tde

C=C(C(N)=O)[C@@H](NC(=O)[C@H](Cc1c[nH]c2ccccc12)NC(=O)[C@@H]1CCN(C(=O)[C@@H](N)Cc2c(C)cc(O)cc2C)C1)c1ccco1
Activity [13]: Active | Emax [1]: 73.8% | Ki [2]: 19.8 nM | IC50 [3]: 0.167 nM | Activity [14]: inactive | half-life [15]: > 600 min | inhibition [4]: Active | Activity [16]: inactive | Emax [5]: 99.5% | Activity [6]: Dose-dependent effect | EC50 [6]: 89.3 nM | Activity [17]: Dose-dependent effect | ED50 [17]: 0.000532 µmol/kg | Ratio Ki [7]: 5320 | Activity [18]: Active | Activity [19]: tde | Ki [8]: 0.00372 nM | Activity [20]: Active | IC50 [9]: 0.548 nM | inhibition [10]: Dose-dependent effect | Ki [11]: 205 nM | Ratio Ki [12]: 55100 | Activity [21]: tde

CN1CC[C@]23c4c5ccc(O)c4O[C@H]2[C@@H](O)C=C[C@H]3[C@H]1C5
Activity [13]: Active | Activity [14]: inactive | Activity [20]: Active
